Source: patent publication US20210085640A1, “ACYLATED CATECHIN POLYPHENOLS AND METHODS OF THEIR USE FOR THE TREATMENT OF CANCER” (Flagship Pioneering Innovations V, Inc., priority 2018, published 2021)

Legend:
[1] = Stability in Simulated Gastric Fluid (SGF); format: in vitro ADME; settings: SGF pH 1.6 with pepsin, 1 μM, 37° C.
Description: Stability of acylated active agents in Simulated Gastric Fluid (SGF). This assay was used to assess the stability of an acylated active agent in a stomach.
Medium was prepared by dissolving 2 g of sodium chloride in 0.6 L in ultrapure water (MilliQ®, Millipore Sigma, Darmstadt, Germany). The pH was adjusted to 1.6 with 1N hydrochloric acid, and the volume was then adjusted to 1 L with purified water.
60 mg FaSSIF powder (Biorelevant™, London, UK) were dissolved in 500 mL buffer (above). Pepsin was added (0.1 mg/mL) (Millipore Sigma, Darmstadt, Germany), and the solution was stirred. The resulting SGF media were used fresh for each experiment.
(§1) Test compounds were dissolved in DMSO stock to 1 mM. An aliquot of the DMSO stock solution was removed and diluted in the SGF Media in 15 mL falcon tubes to generate a total compound concentration of 1 μM. A 1 mL aliquot was immediately removed and diluted once with 1 volume of acetonitrile for T0 timepoint. The mixture was sealed and mixed at 37° C. in an incubator. Aliquots (1 mL) were removed at regular intervals and immediately quenched by the addition of 1 volume of acetonitrile. The resulting samples were analyzed by LC/MS to determine degradation rates

[2] = Stability in Simulated Intestinal Fluid (SIF); format: in vitro ADME
Description: SIF Stability of acylated active agents in Simulated Intestinal Fluid (SIF). This assay was used to assess the stability of an acylated active agent in a small intestine.
Phosphate buffer was prepared by dissolving 0.42 g of sodium hydroxide pellets and 3.95 g of monobasic sodium phosphate monohydrate and 6.19 g of sodium chloride in ultrapure water (MilliQ®, Millipore Sigma, Darmstadt, Germany). The pH was adjusted to 6.7 using aq. HCl and aq. NaOH, as necessary, and the solution was diluted with ultrapure water to produce 1 L of the pH 6.7 buffer.
112 mg FaSSIF powder (Biorelevant™, London, UK) was dissolved in 50 mL of the pH 6.7 buffer. 2 to 3 mL of the resulting solution were then added to 500 mg pancreatin (Millipore Sigma, Darmstadt, Germany). The resulting mixture was agitated by finger tapping the vessel containing the mixture until milky suspension formed. At this time, the remainder of the 50 mL FaSSiF/pH 6.7 buffer solution was added. The resulting suspension was flipped upside down 10 times to produce SIF, which was used fresh.
as §1, with “SIF media” for “SGF Media”, “produce” for “generate”, “mixture with a tested” for “total”, “agitated” for “mixed”, “rates.” for “rates”

[3] = system: Daudi lymphoma cancer cells; test: Cancer cell survival (CellTiter-Glo), Daudi; format: cell-based; settings: 72 h
Procedure, shortened: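 Daudi cells (4×10^3/well) were exposed for 72 h at 37 °C to nine concentrations of compound, added as 10× solutions spanning 1 μM–10 mM (fatty acids) or 100 nM–1 mM (others). CellTiter-Glo luminescence gave % survival versus untreated, medium-blank corrected; IC50 derived.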

[4] = system: PC-3 prostate cancer cells; test: Cancer cell survival (CellTiter-Glo), PC-3; format: cell-based; settings: PC-3 cells, 72 h
Procedure, shortened: (§2)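 Following overnight plating of 4×10^3 cells per well, triplicate wells received compound at nine concentrations (10× dosing stocks: fatty acids 1 μM-10 mM, all others 100 nM-1 mM). Incubation lasted 72 h at 37 C under 5% CO2. CellTiter-Glo luminescence then gave percent survival and IC50.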

T24 bladder cancer cells = test: Cancer cell survival (CellTiter-Glo), T24; format: cell-based; settings: 72 h
Procedure, shortened: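 Viability by CellTiter-Glo after 72 h compound treatment of T24 bladder cancer cells (4×10^3/well, plated the night before), nine concentration levels in triplicate. Percent survival normalised to untreated cells minus medium background, from which IC50 was determined.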

AGS stomach cancer cells = test: Cancer cell survival (CellTiter-Glo), AGS; format: cell-based; set-up: Cell survival at given concentration: unit not given here
Procedure, shortened: as §2

MCF7 breast cancer cells = test: Cancer cell survival (CellTiter-Glo), MCF7; format: cell-based; settings: 72 h
Procedure, shortened: as §2

A549 lung cancer cells = test: Cancer cell survival (CellTiter-Glo), A549; format: cell-based; settings: 72 h
Procedure, shortened: as §2

[5] = system: HCT 116 colorectal cancer cells; test: Cancer cell survival (CellTiter-Glo), HCT 116; format: cell-based; settings: HCT 116 cells, 72 h
Procedure, shortened: as §2

A-431 skin cancer cells = test: Cancer cell survival (CellTiter-Glo), A-431; format: cell-based; set-up: Cell survival at given concentration: unit not given here; settings: A-431 cells, 72 h
Procedure, shortened: as §2

Compound: CC(=O)Oc1cc(OC(C)=O)c2c(=O)c(OC(C)=O)c(-c3ccc(OC(C)=O)c(OC(C)=O)c3)oc2c1 [Compound 4, [2-acetoxy-4-(3,5,7-triacetoxy-4-oxo-chromen-2-yl)phenyl] acetate]
- Assay 1 (SGF) (% Remaining @ 1 hours) [1]: C (>75% of the tested compound remaining)
- Assay 2 (SIF) (% @ Remaining 4 hours) ([2]; SIF pH 6.7 with pancreatin, 1 μM, 37° C., 4 hours): A (<25% of the tested compound remaining)
- selective delivery to the upper intestine ([2]; conclusion drawn from Table 1 (SGF and SIF stability)): can be selectively delivered to the upper intestine

Compound: CC(=O)Oc1ccc(-c2oc3cc(OC(C)=O)cc(OC(C)=O)c3c(=O)c2OC(C)=O)cc1 [Compound 8, [4-(3,5,7-triacetoxy-4-oxo-chromen-2-yl)phenyl] acetate]
- Assay 1 (SGF) (% Remaining @ 1 hours) [1]: C (>75% of the tested compound remaining)

Compound: CC(=O)Oc1cc(OC(C)=O)c2c(=O)c(OC(C)=O)c(-c3cc(OC(C)=O)c(OC(C)=O)c(OC(C)=O)c3)oc2c1 [Compound 11, [3,5-diacetoxy-4-oxo-2-(3,4,5-triacetoxyphenyl)chromen-7-yl] acetate]
- Assay 1 (SGF) (% Remaining @ 1 hours) [1]: C (>75% of the tested compound remaining)

Compound: CCC(=O)Oc1cc(OC(=O)CC)c2c(c1)O[C@H](c1cc(OC(=O)CC)c(OC(=O)CC)c(OC(=O)CC)c1)[C@H](OC(=O)c1cc(OC(=O)CC)c(OC(=O)CC)c(OC(=O)CC)c1)C2 [Compound 15, [(2R,3R)-5,7-di(propanoyloxy)-2-[3,4,5-tri(propanoyloxy)phenyl]chroman-3-yl] 3,4,5-tri(propanoyloxy)benzoate]
- Assay 1 (SGF) (% Remaining @ 1 hours) [1]: C (>75% of the tested compound remaining)

Compound: CCCC(=O)O[C@H](C)CCOC(=O)C[C@@H](C)OC(=O)CCC [Compound 23, (R)-3-(butyryloxy)butyl (R)-3-(butyryloxy)butanoate]
- Assay 1 (SGF) (% Remaining @ 1 hours) [1]: C (>75% of the tested compound remaining)

Compound: CCCCC(=O)O [valerate]
- Cell survival at given concentration ([3]; 1 μM, Table 4.2): 0.99
- Cell survival at given concentration ([3]; 3 μM, Table 4.2): 0.98
- Cell survival at given concentration ([3]; 10 μM, Table 4.2): 0.98
- Cell survival at given concentration ([3]; 32 μM, Table 4.2): 1.01
- Cell survival at given concentration ([3]; 100 μM, Table 4.2): 0.95
- Cell survival at given concentration ([3]; 317 μM): 0.91
- Cell survival at given concentration ([3]; 1 mM): 0.76
- Cell survival at given concentration ([3]; 3 mM): 0.39
- Cell survival at given concentration ([3]; 10 mM): 0.12
- IC50 ([3]; Table 4.2): 2.3 mM
- Cell survival at given concentration ([4]; 1 μM, Table 8.2): 1.00
- Cell survival at given concentration ([4]; 3 μM, Table 8.2): 0.99
- Cell survival at given concentration ([4]; 10 μM, Table 8.2): 1.02
- Cell survival at given concentration ([4]; 32 μM, Table 8.2): 1.01
- Cell survival at given concentration ([4]; 100 μM, Table 8.2): 1.04
- Cell survival at given concentration ([4]; 317 μM): 0.97
- Cell survival at given concentration ([4]; 1 mM): 0.94
- Cell survival at given concentration ([4]; 3 mM): 0.84
- Cell survival at given concentration ([4]; 10 mM): 0.69
- IC50 ([4]; Table 8.2): > 10 mM
- Cell survival at given concentration (T24 bladder cancer cells; 1 μM, Table 3.2): 1.00
- Cell survival at given concentration (T24 bladder cancer cells; 3 μM, Table 3.2): 1.01
- Cell survival at given concentration (T24 bladder cancer cells; 10 μM, Table 3.2): 1.01
- Cell survival at given concentration (T24 bladder cancer cells; 32 μM, Table 3.2): 0.98
- Cell survival at given concentration (T24 bladder cancer cells; 100 μM, Table 3.2): 0.98
- Cell survival at given concentration (T24 bladder cancer cells; 317 μM): 0.92
- Cell survival at given concentration (T24 bladder cancer cells; 1 mM): 0.89
- Cell survival at given concentration (T24 bladder cancer cells; 3 mM): 0.79
- Cell survival at given concentration (T24 bladder cancer cells; 10 mM): 0.60
- IC50 (T24 bladder cancer cells; Table 3.2, read-out: IC50): > 10 mM
- Cell survival at given concentration (AGS stomach cancer cells; 1 μM, Table 10.2): 1.03
- Cell survival at given concentration (AGS stomach cancer cells; 3 μM, Table 10.2): 1.03
- Cell survival at given concentration (AGS stomach cancer cells; 10 μM, Table 10.2): 1.04
- Cell survival at given concentration (AGS stomach cancer cells; 32 μM, Table 10.2): 1.03
- Cell survival at given concentration (AGS stomach cancer cells; 100 μM, Table 10.2): 1.05
- Cell survival at given concentration (AGS stomach cancer cells; 317 μM): 1.06
- Cell survival at given concentration (AGS stomach cancer cells; 1 mM): 1.06
- Cell survival at given concentration (AGS stomach cancer cells; 3 mM): 0.97
- Cell survival at given concentration (AGS stomach cancer cells; 10 mM): 0.63
- Cell survival at given concentration (MCF7 breast cancer cells; 1 μM, Table 5.2): 1.00
- Cell survival at given concentration (MCF7 breast cancer cells; 3 μM, Table 5.2): 1.02
- Cell survival at given concentration (MCF7 breast cancer cells; 10 μM, Table 5.2): 1.01
- Cell survival at given concentration (MCF7 breast cancer cells; 32 μM, Table 5.2): 0.97
- Cell survival at given concentration (MCF7 breast cancer cells; 100 μM, Table 5.2): 1.00
- Cell survival at given concentration (MCF7 breast cancer cells; 317 μM): 0.96
- Cell survival at given concentration (MCF7 breast cancer cells; 1 mM): 0.94
- Cell survival at given concentration (MCF7 breast cancer cells; 3 mM): 0.76
- Cell survival at given concentration (MCF7 breast cancer cells; 10 mM): 0.50
- IC50 (MCF7 breast cancer cells; Table 5.2): > 10 mM
- Cell survival at given concentration (A549 lung cancer cells; 1 μM, Table 7.2): 0.98
- Cell survival at given concentration (A549 lung cancer cells; 3 μM, Table 7.2): 1.00
- Cell survival at given concentration (A549 lung cancer cells; 10 μM, Table 7.2): 1.01
- Cell survival at given concentration (A549 lung cancer cells; 32 μM, Table 7.2): 0.97
- Cell survival at given concentration (A549 lung cancer cells; 100 μM, Table 7.2): 1.04
- Cell survival at given concentration (A549 lung cancer cells; 317 μM): 1.02
- Cell survival at given concentration (A549 lung cancer cells; 1 mM): 0.98
- Cell survival at given concentration (A549 lung cancer cells; 3 mM): 0.87
- Cell survival at given concentration (A549 lung cancer cells; 10 mM): 0.62
- IC50 (A549 lung cancer cells; Table 7.2): > 10 mM
- Cell survival at given concentration ([5]; 1 μM, Table 6.2): 0.99
- Cell survival at given concentration ([5]; 3 μM, Table 6.2): 0.99
- Cell survival at given concentration ([5]; 10 μM, Table 6.2): 1.04
- Cell survival at given concentration ([5]; 32 μM, Table 6.2): 1.00
- Cell survival at given concentration ([5]; 100 μM, Table 6.2): 1.01
- Cell survival at given concentration ([5]; 317 μM): 0.99
- Cell survival at given concentration ([5]; 1 mM): 0.90
- Cell survival at given concentration ([5]; 3 mM): 0.60
- Cell survival at given concentration ([5]; 10 mM): 0.17
- IC50 ([5]; Table 6.2): 4.07 mM
- Cell survival at given concentration (A-431 skin cancer cells; 1 μM, Table 9.2): 1.01
- Cell survival at given concentration (A-431 skin cancer cells; 3 μM, Table 9.2): 1.01
- Cell survival at given concentration (A-431 skin cancer cells; 10 μM, Table 9.2): 1.02
- Cell survival at given concentration (A-431 skin cancer cells; 32 μM, Table 9.2): 1.02
- Cell survival at given concentration (A-431 skin cancer cells; 100 μM, Table 9.2): 1.02
- Cell survival at given concentration (A-431 skin cancer cells; 317 μM): 1.03
- Cell survival at given concentration (A-431 skin cancer cells; 1 mM): 0.98
- Cell survival at given concentration (A-431 skin cancer cells; 3 mM): 0.89
- Cell survival at given concentration (A-431 skin cancer cells; 10 mM): 0.71
